Results reported in patent publication US20250340591A1, “COMPOSITION FOR PREVENTING OR TREATING INFLAMMATORY BOWEL DISEASE CONTAINING NOVEL COMPOUND” (ANYGEN CO., LTD., priority 2021, published 2025).

Assays:
[1] = biological target: T1, TRH (thyrotropin releasing hormone) receptor (TRHR) (Homo sapiens, UniProt P34981); experiment: luciferase assay system, ghrelin receptor family selectivity; format: cell-based; details: compared with intrinsic ligand, FIG. 74
T1 construct: expressed in transfected cells
T1 sequence (P34981 1-398): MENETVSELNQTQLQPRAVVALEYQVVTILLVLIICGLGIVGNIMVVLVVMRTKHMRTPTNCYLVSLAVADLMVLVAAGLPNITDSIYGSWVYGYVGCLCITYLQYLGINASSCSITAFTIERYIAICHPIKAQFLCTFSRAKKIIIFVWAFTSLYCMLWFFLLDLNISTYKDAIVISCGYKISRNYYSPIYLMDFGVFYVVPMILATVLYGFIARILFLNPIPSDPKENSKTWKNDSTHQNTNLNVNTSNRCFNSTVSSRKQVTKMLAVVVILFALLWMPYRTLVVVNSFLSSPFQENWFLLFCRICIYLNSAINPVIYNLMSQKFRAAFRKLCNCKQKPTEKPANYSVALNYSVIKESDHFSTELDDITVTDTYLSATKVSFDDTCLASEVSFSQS
Protocol: (§1) In addition, through the activity test of the HKFY derivatives for similar receptors to GPR39, ghrelin receptor family (ghrelin receptor (GHSR), motilin receptor (MTLR), neurotensin receptor (NTSR1 & NTSR2), neuromedin U receptor (NMU1 & NMU2), TRH (thyrotropin releasing hormone) receptor (TRHR)), the selectivity and specificity for the GPR39 receptor were confirmed.
(§2) Specifically, the degree of activity between the intrinsic ligand and HKFY-34 for each receptor was analyzed using a luciferase assay system (FIG. 74).

ghrelin receptor (GHSR) = biological target: T2, ghrelin receptor (GHSR) (Homo sapiens, UniProt Q92847); experiment: as above; format: cell-based; details: compared with intrinsic ligand, FIG. 74
T2 construct: expressed in transfected cells
T2 sequence (Q92847 whole entry, species assumed): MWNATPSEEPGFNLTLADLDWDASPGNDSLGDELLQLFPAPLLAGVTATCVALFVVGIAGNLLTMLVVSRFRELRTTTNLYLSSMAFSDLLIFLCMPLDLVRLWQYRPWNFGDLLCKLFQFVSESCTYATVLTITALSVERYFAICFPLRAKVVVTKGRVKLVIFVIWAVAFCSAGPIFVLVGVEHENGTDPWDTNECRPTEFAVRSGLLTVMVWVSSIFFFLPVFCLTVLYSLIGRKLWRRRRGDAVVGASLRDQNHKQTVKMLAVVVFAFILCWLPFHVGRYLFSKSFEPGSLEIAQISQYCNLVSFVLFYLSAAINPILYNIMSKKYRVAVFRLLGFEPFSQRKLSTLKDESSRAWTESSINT
Protocol: as §1, §2

motilin receptor (MTLR) = biological target: T3, motilin receptor (MTLR) (Homo sapiens, UniProt O43193); experiment: as above; format: cell-based; details: compared with intrinsic ligand, FIG. 74
T3 construct: expressed in transfected cells
T3 sequence (O43193 whole entry, species assumed): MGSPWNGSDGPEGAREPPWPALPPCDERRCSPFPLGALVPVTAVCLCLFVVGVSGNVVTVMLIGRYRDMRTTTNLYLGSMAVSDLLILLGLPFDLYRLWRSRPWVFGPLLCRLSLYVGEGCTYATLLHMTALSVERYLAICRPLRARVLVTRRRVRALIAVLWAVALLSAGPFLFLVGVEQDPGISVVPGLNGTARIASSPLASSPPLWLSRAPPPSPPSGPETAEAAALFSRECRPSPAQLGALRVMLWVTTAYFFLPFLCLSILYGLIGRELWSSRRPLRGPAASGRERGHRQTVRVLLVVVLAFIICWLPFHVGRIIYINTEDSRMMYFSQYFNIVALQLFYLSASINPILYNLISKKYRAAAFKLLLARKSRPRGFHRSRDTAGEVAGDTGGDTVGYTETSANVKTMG
Protocol: as §1, §2

[2] = biological target: T4, neuromedin U receptor (NMU1) (Homo sapiens, UniProt Q9HB89); experiment: as above; format: cell-based; details: compared with intrinsic ligand, FIG. 74
T4 construct: expressed in transfected cells
T4 sequence (Q9HB89 1-426): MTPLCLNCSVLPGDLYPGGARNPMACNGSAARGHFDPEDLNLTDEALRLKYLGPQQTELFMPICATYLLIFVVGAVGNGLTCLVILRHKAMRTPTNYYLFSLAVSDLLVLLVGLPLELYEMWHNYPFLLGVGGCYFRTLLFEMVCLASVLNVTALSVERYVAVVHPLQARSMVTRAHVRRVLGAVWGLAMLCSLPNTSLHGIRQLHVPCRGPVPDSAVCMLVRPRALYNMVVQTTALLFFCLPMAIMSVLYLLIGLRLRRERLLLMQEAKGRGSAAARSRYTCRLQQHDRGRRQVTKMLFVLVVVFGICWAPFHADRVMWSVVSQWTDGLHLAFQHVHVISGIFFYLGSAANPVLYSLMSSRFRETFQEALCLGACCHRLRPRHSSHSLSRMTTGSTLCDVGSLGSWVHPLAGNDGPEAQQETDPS
Protocol: as §1, §2

[3] = biological target: T5, neuromedin U receptor (NMU2) (Homo sapiens, UniProt Q9GZQ4); experiment: as above; format: cell-based; details: compared with intrinsic ligand, FIG. 74
T5 construct: expressed in transfected cells
T5 sequence (Q9GZQ4 whole entry, species assumed): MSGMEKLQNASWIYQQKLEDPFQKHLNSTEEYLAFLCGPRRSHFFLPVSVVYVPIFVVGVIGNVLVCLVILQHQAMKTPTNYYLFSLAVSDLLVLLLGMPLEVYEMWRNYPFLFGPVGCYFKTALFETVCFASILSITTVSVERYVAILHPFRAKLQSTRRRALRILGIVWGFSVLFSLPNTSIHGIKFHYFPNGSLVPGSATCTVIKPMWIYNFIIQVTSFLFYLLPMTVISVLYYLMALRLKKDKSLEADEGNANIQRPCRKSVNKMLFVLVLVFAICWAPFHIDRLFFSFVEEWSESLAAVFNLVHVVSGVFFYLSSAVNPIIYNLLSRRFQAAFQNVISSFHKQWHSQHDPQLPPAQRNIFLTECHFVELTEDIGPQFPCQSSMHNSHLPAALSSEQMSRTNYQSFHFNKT
Protocol: as §1, §2

[4] = biological target: T6, neurotensin receptor (NTSR1) (Homo sapiens, UniProt P30989); experiment: as above; format: cell-based; details: compared with intrinsic ligand, FIG. 74
T6 construct: expressed in transfected cells
T6 sequence (P30989 whole entry, species assumed): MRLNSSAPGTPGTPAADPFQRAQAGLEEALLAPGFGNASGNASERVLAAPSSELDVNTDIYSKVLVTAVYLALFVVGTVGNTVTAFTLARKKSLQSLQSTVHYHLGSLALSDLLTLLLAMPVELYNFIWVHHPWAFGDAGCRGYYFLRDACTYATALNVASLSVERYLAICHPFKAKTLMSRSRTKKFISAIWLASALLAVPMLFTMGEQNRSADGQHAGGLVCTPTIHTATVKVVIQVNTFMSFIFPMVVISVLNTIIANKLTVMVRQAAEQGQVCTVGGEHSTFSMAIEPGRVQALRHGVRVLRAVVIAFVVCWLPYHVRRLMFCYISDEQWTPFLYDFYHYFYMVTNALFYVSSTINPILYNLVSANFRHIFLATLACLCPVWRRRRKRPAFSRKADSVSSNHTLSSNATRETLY
Protocol: as §1, §2

[5] = biological target: T7, neurotensin receptor (NTSR2) (Homo sapiens, UniProt O95665); experiment: as above; format: cell-based; details: compared with intrinsic ligand, FIG. 74
T7 construct: expressed in transfected cells
T7 sequence (O95665 whole entry, species assumed): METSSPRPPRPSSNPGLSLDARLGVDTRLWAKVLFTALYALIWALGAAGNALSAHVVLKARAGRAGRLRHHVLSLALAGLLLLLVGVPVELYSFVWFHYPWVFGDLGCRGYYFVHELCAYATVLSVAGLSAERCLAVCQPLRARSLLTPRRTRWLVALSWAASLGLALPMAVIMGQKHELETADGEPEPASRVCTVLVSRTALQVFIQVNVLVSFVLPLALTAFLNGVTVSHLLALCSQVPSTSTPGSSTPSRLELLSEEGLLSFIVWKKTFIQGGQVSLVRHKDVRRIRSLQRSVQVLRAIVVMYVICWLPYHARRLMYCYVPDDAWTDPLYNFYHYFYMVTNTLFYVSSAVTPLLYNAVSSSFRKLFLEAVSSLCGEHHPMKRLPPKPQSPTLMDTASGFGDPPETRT
Protocol: as §1, §2

HT-29 cells [6] = experiment: cell proliferation of HT-29 intestinal epithelial cells (Cellvia kit, BrdU kit); format: cell-based; details: different concentrations, 24, 48 and 72 hours, FIG. 75
Protocol: It is known from studies using GPR39 deficient mice that GPR39 is involved in the growth and differentiation of intestinal tissue cells (Phil. Trans. R. Soc. B., 2016, 371:20150420). Therefore, in order to confirm the effect of HKFY-34 on the growth of intestinal tissue cells, the degree of cell proliferation by HKFY-34 was measured using HT-29 cells (Korea Cell Line Bank), which are intestinal epithelial cells.
Specifically, HT-29 cells were cultured in a 96 well plate and then treated with HKFY-34 at different concentrations for 24, 48, and 72 hours. The cell proliferation of the cultured cells was measured using a Cellvia kit (AB frontier) and a BrdU cell proliferation kit (abcam).

HT-29 cells [7] = experiment: tight junction factor (ZO-1, occludin) expression in HT-29 cells, qPCR and Western blot; format: cell-based; details: HT-29, different concentrations, vs vehicle
Protocol: It is known that GPR39 is involved in the protection of the gastrointestinal tract (Phil. Trans. R. Soc. B., 2016, 371:20150420). Therefore, in order to confirm the effect of HKFY-34 on the gastrointestinal tract protective function by GPR39, the promoting activity of HKFY-34 on tight junction was evaluated using HT-29 cells, which are important for intestinal tissue formation.
Specifically, the HT-29 cells were treated with HKFY-34 at different concentrations, and then the expression levels of mRNA (FIG. 77) and protein (FIG. 78) of ZO-1 and occludin, which are important factors of tight junction in intestinal barrier function, were confirmed through quantitative RT-PCR (qPCR) and Western blot.

[8] = test system: ulcerative colitis-induced GPR39 deficient mice (Gpr39−/−); experiment: DSS-induced ulcerative colitis in GPR39 deficient mice; format: in vivo
Protocol: In order to confirm the effect of HKFY-34 in an inflammatory bowel disease model using GPR39 as a target substance, a disease model of ulcerative colitis was prepared using GPR39 deficient mice (GPR39 knock out (KO), Gpr39^−/−). At this time, wild type mice born from a litter were set as a control group for each treated group of GPR39 deficient mice.
Specifically, an animal model of ulcerative colitis was prepared by feeding GPR39 deficient mice (Lexicon pharmaceuticals) and wild type mice with water containing 3% DSS in the same manner as in Experimental Example 7. GPR39 KO mice fed with only DSS (vehicle+3% DSS) were set as a negative control group, and GPR39 KO mice administered with HKFY-34 (10 mg/kg) (HKFY-34 10 mg/kg+3% DSS) were set as a test group. Intraperitoneal administration was performed once a day for 5 days.

Question: Which results are given for `CCCCCCCC(=O)NCCCC[C@H](NC(=O)[C@@H](N)Cc1cn(C(c2ccccc2)c2ccccc2)cn1)C(=O)N[C@H](Cc1ccc(C)cc1)C(=O)N[C@@H](Cc1ccc(O)cc1)C(=O)O` [HKFY-34, ((R)-2-((S)-2-((S)-2-amino-3-(1-benzhydryl-1H-imidazol-4-yl)propanamido)-6-octanamidohexanamido)-3-(p-tolyl)propanoyl)-L-tyrosine]?
Answer: activity for TRHR [1]: very low; activity for GHSR (ghrelin receptor (GHSR)): very low; activity for MTLR (motilin receptor (MTLR)): very low; activity for NMU1 [2]: very low; activity for NMU2 [3]: very low; activity for NTSR1 [4]: very low; activity for NTSR2 [5]: very low; proliferation of HT-29 cells (HT-29 cells [6]): increased by HKFY-34 in a dose-dependent manner; protein expression level of ZO-1 (HT-29 cells [7]; Western blot, FIG. 78): significantly increased by HKFY-34 in a dose-dependent manner; protein expression level of occludin (HT-29 cells [7]; Western blot, FIG. 78): significantly increased by HKFY-34 in a dose-dependent manner; mRNA expression level of ZO-1 (HT-29 cells [7]; qPCR, FIG. 77): significantly increased by HKFY-34 in a dose-dependent manner; mRNA expression level of occludin (HT-29 cells [7]; qPCR, FIG. 77): significantly increased by HKFY-34 in a dose-dependent manner; inhibitory effect on the reduction of colon length ([8]; 10 mg/kg intraperitoneal for 5 days, FIG. 92): not observed; effect of reducing inflammatory damage of colon tissue (H&E staining) ([8]; 10 mg/kg intraperitoneal for 5 days, FIG. 95): not observed; inhibitory effect on body weight loss ([8]; 10 mg/kg intraperitoneal once a day for 5 days, 3% DSS, FIG. 91): no inhibitory effect; effect of alleviating stool consistency ([8]; 10 mg/kg intraperitoneal, vs negative control, FIG. 93): not observed; effect of alleviating blood in stool ([8]; 10 mg/kg intraperitoneal, vs negative control, FIG. 94): not observed
